Data taken from patent US9789195B2, “Particulate drug delivery methods” (priority 2007, dated 2017).

Tested on: PC-3 cells
Assay: MTT assay in PC-3 cells, 24 hr incubation
Format: cell-based
Details: Homo sapiens, NCs of similar sizes (~100 nm)
Protocol: Characterization and Evaluation of Ptxl-PLA NC: NC sizes were characterized by a ZetaPALS dynamic light scattering detector (Brookhaven Instruments, Holtsville, N.Y., USA) or by SEM. The resulting NCs were purified by ultrafiltration; their in vitro toxicities were then evaluated using MTT assay in PC-3 cells (24 hr incubation at 37 C). To determine the release kinetics of Ptxl-PLA, a PBS solution of NCs was equally divided into several portions and then incubated at 37 C. At scheduled time, the release study was terminated. DMF solution was added to dissolve all precipitation. All the samples were then dried, re-dissolved in DCM and reacted with Bu4NBH4 for 1.5 hours. A drop of acetic acid was added into the solution. The solution was stirred for 20 min before the solvent was evaporated. The residual solid was reconstituted in acetonitrile for RP HPLC analysis (Curosil, 250×4.6 mm, 5μ; Phenomenex, Torrence, Calif., USA).
PC-3 cells were plated in a 96-well plate for 24 h (10,000 cells per well). On the day of experiments, cells were washed with prewarmed PBS and different concentration of fresh prepared NCs (prepared in 1×PBS) was added. The control cells were incubated with medium. […] The resulting crystals were dissolved and final cell viability was assessed colorimetrically by microplate reader at 655 nm. […]

CC(=O)O[C@H]1C(=O)[C@@]2(C)[C@H]([C@H](OC(=O)c3ccccc3)[C@]3(O)C[C@H](OC(=O)[C@H](O)[C@@H](NC(=O)c4ccccc4)c4ccccc4)C(C)=C1C3(C)C)[C@]1(OC(C)=O)CO[C@@H]1C[C@@H]2O [Ptxl, paclitaxel]
IC50: 87 nM
